In PubChem BioAssay (NCI):
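Results reflect a 48-hour exposure of cells in 96-well plates to compound at five concentrations. Abbreviation: GI50, concentration required for 50% inhibition of growth. TGI: concentration producing complete growth inhibition.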

Legend:
Test in all cases: inhibition of tumour cell growth, NCI panel, 48 h
[1] = tested on: PC-3 prostate
[2] = tested on: SNB-19 CNS
[3] = tested on: SF-268 CNS
[4] = tested on: MOLT-4 leukemia
[5] = tested on: UACC-257 melanoma
[6] = tested on: M14 melanoma
[7] = tested on: HL-60(TB) leukemia
[8] = tested on: MALME-3M melanoma
[9] = tested on: SK-MEL-28 melanoma
[10] = tested on: NCI/ADR-RES ovarian

Row | SMILES | GI50 [1] [µM] | TGI [1] [µM] | GI50 [2] [µM] | TGI [2] [µM] | GI50 [3] [µM] | TGI [3] [µM] | GI50 [4] [µM] | TGI [4] [µM] | GI50 [5] [µM] | TGI [5] [µM] | GI50 [6] [µM] | TGI [6] [µM] | TGI [7] [µM] | TGI [8] [µM] | TGI [9] [µM] | GI50 [10] [µM] | TGI [10] [µM] | GI50 [7] [µM] | GI50 [8] [µM] | GI50 [9] [µM]
1 | Cc1nn2c(/C=C3/C(=O)Nc4ccccc43)c(-c3ccc(Cl)cc3)nc2s1 | 12.2 | 32.2 | 10.5 | 32.6 | 19.9 | > 50 | > 50 | > 50 | 37.3 | > 50 | 11.5 | 36.4 |  |  |  |  |  |  |  | 
2 | CCN(CC)C(=S)N/N=C(\C)c1ccccc1O |  |  |  | > 100 |  | > 100 |  | > 100 |  | > 100 |  | 51.3 | > 100 | > 100 | > 100 |  |  |  |  | 
3 | COc1ccc(C(=O)/C=C/c2cc(C(=O)c3cc(OC)c(OC)c(OC)c3)ccc2OC)cc1 |  |  | 4.54 | > 100 | 3.51 | > 100 |  |  |  |  | 4.92 | > 100 |  |  |  | 2.93 | > 100 |  |  | 
4 | COC1=C(C(=O)OC(C)(C)C)[C@]2(C)C(C(=O)OC(C)(C)C)C(OC)=C(C(=O)OC(C)(C)C)[C@]2(C)C1C(=O)OC(C)(C)C (stereo partly specified) |  |  |  | > 100 |  | > 100 |  | > 100 |  | > 100 |  | > 100 | > 100 | > 100 |  |  |  |  |  | 
5 | Cc1c(C(=O)CC(=O)C(=O)Nc2cccc(C(F)(F)F)c2)[n+](=O)c2ccccc2n1[O-] |  |  |  | 19.9 |  | 14.4 |  | 7.56 |  | 6.73 |  | 11.4 | 7.65 | 13.3 | 27.2 |  |  |  |  | 
6 | Cc1nn2c(/C=C3/C(=O)Nc4ccc(Cl)cc43)c(-c3ccccc3)nc2s1 | 1.79 | 5.37 | 9.54 | 34.2 | 2.06 | 5.19 | 6.96 | 37.1 | 3.11 | 11.1 | 6.33 | 21.5 | > 100 | 5.57 | 7.06 |  |  | 28.8 | 2.17 | 2.65
7 | Cc1cccc(C)c1NC(=O)C(=O)CC(=O)CO |  |  |  | > 100 |  | > 100 |  | > 100 |  | > 100 |  | > 100 | > 100 | > 100 | > 100 |  |  |  |  | 
8 | O=C(CNC(=O)c1cccc2ccccc12)Nc1ccccc1Oc1ccccc1 | 0.304 | > 10 | 0.461 | > 10 | 0.435 | > 10 | 0.348 | > 10 |  |  | 0.278 | > 10 |  | > 10 | > 10 | 0.239 | > 10 |  |  | 0.813
9 | C=C1C(=O)O[C@@H]2C[C@@H](C)[C@@H]3[C@@H](OC4OC(COC(C)=O)C(O)C(O)C4O)CC(=O)[C@@]3(C)C[C@H]12 (stereo partly specified) |  | 23.7 |  | 45.1 |  | 44.7 |  | 7.4 |  | 3.49 |  | 2.85 |  | 0.849 | 6.27 |  | 14.5 |  |  | 
10 | COC1CC(OS(=O)(=O)c2ccc(C)cc2)C(OS(=O)(=O)c2ccc(C)cc2)C(COS(=O)(=O)c2ccc(C)cc2)O1 (stereo unspecified) |  |  |  | 5.58 |  | 3.02 |  | > 100 |  | 21 |  | 17.8 | > 100 | 8.57 | 13.4 |  |  |  |  | 
